{"source": "patent US20230257415A1", "about": "“COMPOUNDS FOR TREATING CNS DISORDERS” (SAGE THERAPEUTICS, INC., priority 2019, published 2023)", "biological_target": "GABAA receptor", "assay": "[35S]-TBPS binding assay, rat brain cortical membranes, in the presence of GABA", "details": "inhibition of 3 nM [35S]-TBPS binding, 5 mM GABA, 90 min, room temp", "experimental": "[35S]-t-Butylbicyclophosphorothionate (TBPS) binding assays using rat brain cortical membranes in the presence of 5 mM GABA has been described (Gee et al, J. Pharmacol. Exp. Ther. 1987, 241, 346-353; Hawkinson et al, Mol. Pharmacol. 1994, 46, 977-985; Lewin, A.H et al., Mol. Pharmacol. 1989, 35, 189-194).\nBriefly, cortices are rapidly removed following decapitation of carbon dioxide-anesthetized Sprague-Dawley rats (200-250 g). The cortices are homogenized in 10 volumes of ice-cold 0.32 M sucrose using a glass/teflon homogenizer and centrifuged at 1500 x g for 10 min at 4° C. The resultant supernatants are centrifuged at 10,000 x g for 20 min at 4° C. to obtain the P2 pellets. The P2 pellets are resuspended in 200 mM NaCl/50 mM Na-K phosphate pH 7.4 buffer and centrifuged at 10,000 x g for 10 min at 4° C. This washing procedure is repeated twice and the pellets are resuspended in 10 volumes of buffer. Aliquots ([…]) of the membrane suspensions are incubated with 3 nM [^35S]-TBPS and […] aliquots of test drug dissolved in dimethyl sulfoxide (DMSO) (final 0.5%) in the presence of 5 mM GABA. The incubation is brought to a final volume of 1.0 mL with buffer. […] Following a 90 min incubation at room temp, the assays are terminated by filtration through glass fiber filters (Schleicher and Schuell No. 32) using a cell harvester (Brandel) and rinsed three times with ice-cold buffer. Filter bound radioactivity is measured by liquid scintillation spectrometry. Non-linear curve fitting of the overall data for each drug averaged for each concentration is done using Prism (GraphPad). […] The concentration of test compound producing 50% inhibition (IC50) of specific binding and the maximal extent of inhibition (Imax) are determined for the individual experiments with the same model used for the overall data and then the means ± SEM.s of the individual experiments are calculated.\nVarious compounds are or can be screened to determine their potential as modulators of [^35S]-TBPS binding in vitro. These assays are or can be performed in accordance with the above.", "data": [{"smiles": "C[C@H](Cn1cc(C#N)cn1)[C@H]1CCC[C@H]2[C@@H]3CC[C@@H]4C[C@](C)(O)CC[C@@H]4[C@H]3CC[C@]12C", "note": "[Example 1, 1-((S)-2-((1R,4aS,4bR,6aR,8R,10aS,10bR,12aS)-8-hydroxy-8,12a-dimethyloctadecahydrochrysen-1-yl)propyl)-1H-pyrazole-4-carbonitrile]", "values": [{"measurement": "IC50", "result": "< 100", "unit": "nM"}]}, {"smiles": "COC[C@@]1(O)CC[C@H]2[C@H](CC[C@@H]3[C@@H]2CC[C@]2(C)[C@@H]([C@H](C)Cn4cc(C#N)cn4)CCC[C@@H]32)C1", "note": "[Example 2, 1-((S)-2-((1R,4aS,4bR,6aR,8R,10aS,10bR,12aS)-8-hydroxy-8-(methoxymethyl)-12a-methyloctadecahydrochrysen-1-yl)propyl)-1H-pyrazole-4-carbonitrile]", "values": [{"measurement": "IC50", "result": "< 100", "unit": "nM"}]}, {"smiles": "COC[C@@]1(O)CC[C@H]2[C@H](CC[C@@H]3[C@@H]2CC[C@]2(C)[C@@H]([C@@H](C)Cn4cc(C#N)cn4)CCC[C@@H]32)C1", "note": "[Example 3, 1-((R)-2-((1R,4aS,4bR,6aR,8R,10aS,10bR,12aS)-8-hydroxy-8-(methoxymethyl)-12a-methyloctadecahydrochrysen-1-yl)propyl)-1H-pyrazole-4-carbonitrile]", "values": [{"measurement": "IC50", "result": "< 100", "unit": "nM"}]}, {"smiles": "C[C@@H](Cn1cc(C#N)cn1)[C@H]1CCC[C@H]2[C@@H]3CC[C@@H]4C[C@](C)(O)CC[C@@H]4[C@H]3CC[C@]12C", "note": "[Example 4, 1-((R)-2-((1R,4aS,4bR,6aR,8R,10aS,10bR,12aS)-8-hydroxy-8,12a-dimethyloctadecahydrochrysen-1-yl)propyl)-1H-pyrazole-4-carbonitrile]", "values": [{"measurement": "IC50", "result": "< 100", "unit": "nM"}]}, {"smiles": "CCC[C@@]1(O)CC[C@H]2[C@@H](CC[C@@H]3[C@@H]2CC[C@]2(C)[C@@H]([C@@H](C)Cn4nnc(C)n4)CCC[C@@H]32)C1", "note": "[Example 5, (2R,4aS,4bR,6aS,7R,10aS,10bR,12aS)-6a-methyl-7-((R)-1-(5-methyl-2H-tetrazol-2-yl)propan-2-yl)-2-propyloctadecahydrochrysen-2-ol]", "values": [{"measurement": "IC50", "result": "100 to 1000", "unit": "nM"}]}, {"smiles": "CCC[C@@]1(O)CC[C@H]2[C@@H](CC[C@@H]3[C@@H]2CC[C@]2(C)[C@@H]([C@H](C)Cn4nnnc4C)CCC[C@@H]32)C1", "note": "[Example 7, (2R,4aS,4bR,6aS,7R,10aS,10bR,12aS)-6a-methyl-7-((S)-1-(5-methyl-1H-tetrazol-1-yl)propan-2-yl)-2-propyloctadecahydrochrysen-2-ol]", "values": [{"measurement": "IC50", "result": "≥ 1000", "unit": "nM"}]}, {"smiles": "CCC[C@@]1(O)CC[C@H]2[C@@H](CC[C@@H]3[C@@H]2CC[C@]2(C)[C@@H]([C@@H](C)Cn4nnnc4C)CCC[C@@H]32)C1", "note": "[Example 8, (2R,4aS,4bR,6aS,7R,10aS,10bR,12aS)-6a-methyl-7-((R)-1-(5-methyl-1H-tetrazol-1-yl)propan-2-yl)-2-propyloctadecahydrochrysen-2-ol]", "values": [{"measurement": "IC50", "result": "100 to 1000", "unit": "nM"}]}, {"smiles": "CCC[C@@]1(O)CC[C@@]2(C)[C@@H](CC[C@@H]3[C@@H]2CC[C@]2(C)[C@@H]([C@@H](C)Cn4nnc(C)n4)CCC[C@@H]32)C1", "note": "[Example 9, (2R,4aS,4bS,6aS,7R,10aS,10bR,12aS)-4a,6a-dimethyl-7-((R)-1-(5-methyl-2H-tetrazol-2-yl)propan-2-yl)-2-propyloctadecahydrochrysen-2-ol]", "values": [{"measurement": "IC50", "result": "100 to 1000", "unit": "nM"}]}, {"smiles": "CCC[C@@]1(O)CC[C@@]2(C)[C@@H](CC[C@@H]3[C@@H]2CC[C@]2(C)[C@@H]([C@@H](C)Cn4nnnc4C)CCC[C@@H]32)C1", "note": "[Example 10, (2R,4aS,4bS,6aS,7R,10aS,10bR,12aS)-4a,6a-dimethyl-7-((R)-1-(5-methyl-1H-tetrazol-1-yl)propan-2-yl)-2-propyloctadecahydrochrysen-2-ol]", "values": [{"measurement": "IC50", "result": "100 to 1000", "unit": "nM"}]}, {"smiles": "C[C@@H]1CC[C@H]([C@@H](C)Cn2cc(C#N)cn2)[C@@]2(C)CC[C@H]3[C@@H](CC[C@@H]4C[C@](C)(O)CC[C@@H]43)[C@H]12", "note": "[Example 11, 1-((R)-2-((1R,4R,4aS,4bR,6aR,8R,10aS,10bR,12aR)-8-hydroxy-4,8,12a-trimethyloctadecahydrochrysen-1-yl)propyl)-1H-pyrazole-4-carbonitrile]", "values": [{"measurement": "IC50", "result": "< 100", "unit": "nM"}]}, {"smiles": "C[C@@H]1CC[C@H]([C@H](C)Cn2cc(C#N)cn2)[C@@]2(C)CC[C@H]3[C@@H](CC[C@@H]4C[C@](C)(O)CC[C@@H]43)[C@H]12", "note": "[Example 12, 1-((S)-2-((1R,4R,4aS,4bR,6aR,8R,10aS,10bR,12aR)-8-hydroxy-4,8,12a-trimethyloctadecahydrochrysen-1-yl)propyl)-1H-pyrazole-4-carbonitrile]", "values": [{"measurement": "IC50", "result": "< 100", "unit": "nM"}]}, {"smiles": "C[C@@H](Cn1cc(C#N)cn1)[C@H]1CC[C@H]2[C@@H]3CC=C4CC[C@](C)(O)CC[C@]4(C)[C@H]3CC[C@]12C", "note": "[Example 17, 1-((R)-2-((1R,3aS,3bS,8S,10aR,10bS,12aS)-8-hydroxy-8,10a,12a-trimethyl-1,2,3,3a,3b,4,6,7,8,9,10,10a,10b,11,12,12a-hexadecahydrocyclohepta[a]cyclopenta[f]naphthalen-1-yl)propyl)-1H-pyrazole-4-carbonitrile]", "values": [{"measurement": "IC50", "result": "< 100", "unit": "nM"}]}, {"smiles": "C[C@H](Cn1cc(C#N)cn1)[C@H]1CC[C@H]2[C@@H]3CC=C4CC[C@](C)(O)CC[C@]4(C)[C@H]3CC[C@]12C", "note": "[Example 18, 1-((S)-2-((1R,3aS,3bS,8S,10aR,10bS,12aS)-8-hydroxy-8,10a,12a-trimethyl-1,2,3,3a,3b,4,6,7,8,9,10,10a,10b,11,12,12a-hexadecahydrocyclohepta[a]cyclopenta[f]naphthalen-1-yl)propyl)-1H-pyrazole-4-carbonitrile]", "values": [{"measurement": "IC50", "result": "< 100", "unit": "nM"}]}, {"smiles": "C[C@@H](Cn1cc(C#N)cn1)[C@H]1CC[C@H]2[C@@H]3CC[C@H]4CC[C@](C)(O)CC[C@]4(C)[C@H]3CC[C@]12C", "note": "[Example 19, 1-((R)-2-((1R,3aS,3bR,5aS,8S,10aS,10bS,12aS)-8-hydroxy-8,10a,12a-trimethyloctadecahydrocyclohepta[a]cyclopenta[f]naphthalen-1-yl)propyl)-1H-pyrazole-4-carbonitrile]", "values": [{"measurement": "IC50", "result": "< 100", "unit": "nM"}]}, {"smiles": "C[C@H](Cn1cc(C#N)cn1)[C@H]1CC[C@H]2[C@@H]3CC[C@H]4CC[C@](C)(O)CC[C@]4(C)[C@H]3CC[C@]12C", "note": "[Example 20, 1-((S)-2-((1R,3aS,3bR,5aS,8S,10aS,10bS,12aS)-8-hydroxy-8,10a,12a-trimethyloctadecahydrocyclohepta[a]cyclopenta[f]naphthalen-1-yl)propyl)-1H-pyrazole-4-carbonitrile]", "values": [{"measurement": "IC50", "result": "< 100", "unit": "nM"}]}, {"smiles": "C[C@H](Cn1cc(C#N)cn1)[C@H]1CC[C@H]2[C@@H]3CC[C@@H]4C[C@](C)(O)CCC[C@@H]4[C@H]3CC[C@]12C", "note": "[Example 22, 1-((S)-2-((1R,3aS,3bR,5aR,7R,10aS,10bR,12aS)-7-hydroxy-7,12a-dimethyloctadecahydrocyclohepta[a]cyclopenta[f]naphthalen-1-yl)propyl)-1H-pyrazole-4-carbonitrile]", "values": [{"measurement": "IC50", "result": "< 100", "unit": "nM"}]}, {"smiles": "CN(C[C@H]1CCC[C@H]2[C@@H]3CC[C@@H]4C[C@](C)(O)CC[C@@H]4[C@H]3CC[C@]12C)C(=O)c1ccccc1", "note": "[Example 23, N-(((1S,4aS,4bR,6aR,8R,10aS,10bR,12aS)-8-hydroxy-8,12a-dimethyloctadecahydrochrysen-1-yl)-methyl)-N-methylbenzamide]", "values": [{"measurement": "IC50", "result": "100 to 1000", "unit": "nM"}]}, {"smiles": "C[C@@]1(O)CC[C@H]2[C@H](CC[C@@H]3[C@@H]2CC[C@]2(C)[C@@H](CNC(=O)c4ccccc4)CCC[C@@H]32)C1", "note": "[Example 24, N-(((1S,4aS,4bR6aR,8R,10aS,10bR,12aS)-8-hydroxy-8,12a-dimethyloctadecahydrochrysen-1-yl)methyl)benzamide]", "values": [{"measurement": "IC50", "result": "100 to 1000", "unit": "nM"}]}, {"smiles": "C[C@@]1(O)CC[C@H]2[C@H](CC[C@@H]3[C@@H]2CC[C@]2(C)[C@@H](CNS(=O)(=O)c4ccccc4)CCC[C@@H]32)C1", "note": "[Example 25, N-(((1S,4aS,4bR,6aR,8R,10aS,10bR,12aS)-8-hydroxy-8,12a-dimethyloctadecahydrochrysen-1-yl)methyl)benzenesulfonamide]", "values": [{"measurement": "IC50", "result": "< 100", "unit": "nM"}]}, {"smiles": "CN(C[C@H]1CCC[C@H]2[C@@H]3CC[C@@H]4C[C@](C)(O)CC[C@@H]4[C@H]3CC[C@]12C)S(=O)(=O)c1ccccc1", "note": "[Example 26, N-(((1S,4aS,4bR,6aR,8R,10aS,10bR,12aS)-8-hydroxy-8,12a-dimethyloctadecahydrochrysen-1-yl)methyl)-N-methylbenzenesulfonamide]", "values": [{"measurement": "IC50", "result": "< 100", "unit": "nM"}]}]}
